Measured values taken from patent US6126909A, “Process and apparatus for the production of BI-212 and a use thereof” (Arch Development Corporation, priority 1999, dated 2000).

Columns and labels:
[1] = Estimated radiation dose in humans; set-up: species or system human; Gamma dose/100 mCi / Alpha dose/100 mCi / Total dose: unit: cGy; details: for Total dose / Calculated alpha dose / Calculated gamma dose: 100 mCi
Excerpt: Based upon the in vivo studies, a contemplated dose of 100 mCi to a human produces an alpha and gamma dose to any organ of less than 150 cGy. The calculated alpha dose to the gastrointestinal tract, liver and kidneys is 87.7, 24.6 and 92.5 cGy, respectively, and the calculated gamma dose is 7.39, 4.14 and 5.00 cGy, respectively. Table 9, below, provides the estimated total dose in humans based upon an initial dose of 100 mCi of Bi-212.

[2] = Retention after intraperitoneal injection in mice; assay type: in vivo, mouse
[3] = test system: Ehrlich-Lettre Ascites carcinoma cells; experiment: Efficacy study in mice inoculated with carcinoma cells; assay type: in vivo, mouse; details: 100 μCi i.p.
Protocol: In vivo studies were conducted to determine the distribution of Bi-212 produced using the above-noted process and to compare the Bi-212 distribution to the distribution of Pb-212 ferrous hydroxide in colloidal form. The in vivo studies were conducted using white, female New Zealand rabbits weighing about 4.5 kilograms ([…]) each. Studies were also conducted using rabbits to determine the toxicity levels, e.g., the maximum tolerated dose. Efficacy studies were conducted using 25 gram (gm) female Swiss-Webster mice inoculated with Ehrlich-Lettre Ascites carcinoma cells.
Efficacy studies were conducted using groups of five 25 gm female Swiss-Webster mice that were intraperitoneally inoculated with 10^6 Ehrlich-Lettre Ascites carcinoma cells. The mice were subsequently instilled with 100 μCi of Bi-212 in up to 1 cc normal saline 48 hours after inoculation with the Ehrlich-Lettre Ascites carcinoma cells. The mice were sacrificed at one-half hour, one hour and 3 hours after instillation with the Bi-212 solution. Control groups were inoculated with the Ehrlich-Lettre Ascites carcinoma cells only.

SMILES: [212Bi] [Bi-212, bismuth-212]
- Alpha dose/100 mCi ([1]; GI tract): 87.7
- Gamma dose/100 mCi ([1]; GI tract): 7.39
- Total dose ([1]; GI tract): 95.1
- Alpha dose/100 mCi ([1]; brain): 2.45
- Gamma dose/100 mCi ([1]; brain): 0.038
- Total dose ([1]; brain): 2.49
- Alpha dose/100 mCi ([1]; breasts): 2.45
- Gamma dose/100 mCi ([1]; breasts): 0.643
- Total dose ([1]; breasts): 3.09
- Alpha and gamma dose to any organ ([1]; contemplated dose of 100 mCi to a human): less than 150 cGy
- Calculated alpha dose ([1]; gastrointestinal tract): 87.7 cGy
- Calculated gamma dose ([1]; gastrointestinal tract): 7.39 cGy
- Alpha dose/100 mCi ([1]; kidneys): 92.5
- Gamma dose/100 mCi ([1]; kidneys): 5.00
- Calculated alpha dose ([1]; kidneys): 92.5 cGy
- Calculated gamma dose ([1]; kidneys): 5.00 cGy
- Total dose ([1]; kidneys): 97.5
- Alpha dose/100 mCi ([1]; liver): 24.6
- Gamma dose/100 mCi ([1]; liver): 4.14
- Calculated alpha dose ([1]; liver): 24.6 cGy
- Calculated gamma dose ([1]; liver): 4.14 cGy
- Total dose ([1]; liver): 28.7
- Alpha dose/100 mCi ([1]; lungs): 2.45
- Gamma dose/100 mCi ([1]; lungs): 1.33
- Total dose ([1]; lungs): 3.78
- Alpha dose/100 mCi ([1]; ovaries): 102.4
- Gamma dose/100 mCi ([1]; ovaries): 5.42
- Total dose ([1]; ovaries): 107.8
- Alpha dose/100 mCi ([1]; pancreas): 2.45
- Gamma dose/100 mCi ([1]; pancreas): 17.2
- Total dose ([1]; pancreas): 19.7
- Alpha dose/100 mCi ([1]; red marrow): 2.45
- Gamma dose/100 mCi ([1]; red marrow): 2.30
- Total dose ([1]; red marrow): 4.75
- Alpha dose/100 mCi ([1]; remainder): 2.45
- Gamma dose/100 mCi ([1]; remainder): 1.78
- Total dose ([1]; remainder): 4.23
- Alpha dose/100 mCi ([1]; thyroid): 2.45
- Gamma dose/100 mCi ([1]; thyroid): 0.154
- Total dose ([1]; thyroid): 2.60
- Alpha dose/100 mCi ([1]; total body): 2.45
- Gamma dose/100 mCi ([1]; total body): 1.83
- Total dose ([1]; total body): 4.28
- Alpha dose/100 mCi ([1]; uterus): 102.4
- Gamma dose/100 mCi ([1]; uterus): 21.2
- Total dose ([1]; uterus): 123.6
- Carcass ([2]; 1 min): 88.3 % IA
- Urine ([2]; 1 min): 0.025 % IA
- Carcass ([2]; 10 min): 87.3 % IA
- Urine ([2]; 10 min): 2.2 % IA
- Carcass ([2]; 16 min): 66.8 % IA
- Stool ([2]; 16 min): 0.20 % IA
- Urine ([2]; 16 min): 2.9 % IA
- Carcass ([2]; 30 min): 79.1 % IA
- Stool ([2]; 30 min): 0.53 % IA
- Urine ([2]; 30 min): 6.9 % IA
- Carcass ([2]; 61 min): 68.5 % IA
- Stool ([2]; 61 min): 1.3 % IA
- Urine ([2]; 61 min): 15.9 % IA
- Carcass ([2]; 120 min): 62.9 % IA
- Stool ([2]; 120 min): 6.7 % IA
- Urine ([2]; 120 min): 19.5 % IA
- Stool ([2]; 180 min): 8.3 % IA
- Urine ([2]; 180 min): 24.8 % IA
- Carcass ([2]; 180 min (3 hours)): 61.4 % IA
- Median survival time ([3]; 48 hours after 10^6 cells, after treatment): 82 days
- Cure with no evidence of disease ([3]; 3 months later): 40%
